The target in one assay is GSK-3α/β. Kind of assay: GSK-3α/β in vitro kinase assay (33P-ATP, GS-1 peptide). Type of assay: biochemical, Porcine. Particulars: 15 μM ATP, 30 min at 30 °C, triplicate; <50% inhibition at 10 µM reported as >10; read-out: GSK3 IC50. On the procedure: (§1) Buffer A: MgCl2 (10 mM), 1 mM ethylene glycol-bis(2-aminoethylether)-N,N,N',N'-tetraacetic acid (EGTA), 1 mM dithiothreitol (DTT), 25 mM Tris-HCl pH 7.5, 50 μg heparin/mL.
(§2) Controls were performed with appropriate dilutions of dimethylsulfoxide (DMSO). IC50 values were calculated from dose-response curves established by Sigma-Plots. The GSK-3, CK1, DYRK1A and CLK1 peptide substrates were obtained from Proteogenix (Oberhausbergen, France).
(§3) CDK5/p25. (Human, recombinant) was prepared as previously described. […] ATP (3000 Ci/mmol; 10 mCi/mL) in a final volume of 30 μL. After 30 min incubation at 30 °C, 25 μL aliquots of supernatant were spotted onto sheets of Whatman P81 phosphocellulose paper, and 20 s later, the filters were washed eight times (for at least 5 min each time) in a solution of 10 mL phosphoric acid/L of water. The wet filters were counted in the presence of 1 mL ACS (Amersham) scintillation fluid.
GSK-3α/β. (Porcine brain, native) was assayed as described for CDK5/p25, but in buffer A and using a GSK-3 specific substrate (GS-1: […]pSEDEEE) (pS stands for phosphorylated serine).

The next assay concerns the target CK1δ/ε. Kind of assay: CK1δ/ε in vitro kinase assay (33P-ATP, CK1-specific peptide substrate). Type of assay: biochemical, Porcine. Particulars: 15 μM ATP, 30 min at 30 °C, triplicate; <50% inhibition at 10 µM reported as >10. On the procedure:
as §2, §3
CK1δ/ε. (Porcine brain, native) was assayed as described for CDK5/p25, but using the CK1-specific peptide substrate […]pSAYSITA [23].

The target of another assay is DYRK1A (Rattus norvegicus, UniProt Q63470). Nature of the assay: DYRK1A in vitro kinase assay (33P-ATP, Woodtide substrate). Type of assay: biochemical. The method, then: as §1, §2, §3
For the next assay, the target named is T1, CDK5/p25 (Homo sapiens, UniProt Q00535).
T1 construct: made in house
Kind of assay: CDK5/p25 in vitro kinase assay (33P-ATP, histone H1). Type of assay: biochemical. On the procedure:
as §1, §2, §3

[1] abbreviates: 15 μM ATP, 30 min at 30 °C, triplicate, <50% inhibition at 10 µM reported as >10.
Setting [2] is: 15 μM ATP, 30 min at 30 °C, triplicate, <50% inhibition at 10 µM reported as >10, read-out: CDK5 IC50.

Read-outs that look alike come from different tables or passages of the source. Some results are limits rather than exact numbers.

For orientation: IC50 means the concentration that inhibits the measured activity by half.

T1 sequence (Q00535 whole entry): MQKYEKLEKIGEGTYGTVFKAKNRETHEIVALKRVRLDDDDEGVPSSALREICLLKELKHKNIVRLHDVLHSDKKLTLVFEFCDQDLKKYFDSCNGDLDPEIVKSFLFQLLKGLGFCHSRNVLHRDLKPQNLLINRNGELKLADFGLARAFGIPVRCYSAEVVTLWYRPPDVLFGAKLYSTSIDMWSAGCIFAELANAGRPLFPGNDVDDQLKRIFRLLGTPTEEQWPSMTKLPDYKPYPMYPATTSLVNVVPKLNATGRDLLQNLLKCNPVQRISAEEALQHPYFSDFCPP
T1 sequence (Q15078 99-307 partner limits assumed): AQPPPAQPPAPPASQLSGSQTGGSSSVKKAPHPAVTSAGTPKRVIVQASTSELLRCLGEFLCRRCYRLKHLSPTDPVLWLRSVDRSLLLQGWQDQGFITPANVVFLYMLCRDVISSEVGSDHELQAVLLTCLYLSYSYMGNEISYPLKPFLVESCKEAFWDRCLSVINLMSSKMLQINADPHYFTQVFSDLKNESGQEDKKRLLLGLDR

In the case of `COc1ccc(Nc2ncnc3ccc4nc(C(=N)NCCN5CCOCC5)sc4c23)cc1` [Compound 7a, 9-(4-Methoxyphenylamino)-N-(2-morpholinoethyl)thiazolo[5,4-f]quinazoline-2-carboximidamide], the 50% inhibitory concentration (IC50) on GSK-3α/β was 1.1 µM; at CK1δ/ε it was more than 10 µM; against DYRK1A, more than 10 µM; on CDK5/p25 (read-out: CDK5 IC50) it was more than 10 µM.
With `COc1ccc(Nc2ncnc3ccc4nc(C(=N)NCCN5CCCCC5)sc4c23)cc1` [Compound 7b, 9-(4-Methoxyphenylamino)-N-(2-(piperidin-1-yl)ethyl)thiazolo[5,4-f]quinazoline-2-carboximidamide], the IC50 at GSK-3α/β was 2.5 µM; on CK1δ/ε it was more than 10 µM; against DYRK1A it was more than 10 µM; on CDK5/p25 (read-out: CDK5 IC50) it was more than 10 µM.
In the case of `COc1ccc(Nc2ncnc3ccc4nc(C(=N)NCCN5CCCC5)sc4c23)cc1` [Compound 7c, 9-(4-Methoxyphenylamino)-N-(2-(pyrrolidin-1-yl)ethyl)thiazolo[5,4-f]quinazoline-2-carboximidamide], the half-maximal inhibitory concentration (IC50) was 2 µM at GSK-3α/β, more than 10 µM at CK1δ/ε, more than 10 µM at DYRK1A and more than 10 µM on CDK5/p25 (read-out: CDK5 IC50).
Consider `COc1ccc(Nc2ncnc3ccc4nc(C(=N)NCCN(C)C)sc4c23)cc1` [Compound 7d, N-(2-(Dimethylamino)ethyl)-9-(4-methoxyphenylamino)thiazolo[5,4-f]quinazoline-2-carboximidamide], for which the half-inhibitory concentration (IC50) on GSK-3α/β, on CK1δ/ε, at DYRK1A and on CDK5/p25 (read-out: CDK5 IC50) was more than 10 µM throughout.
For `CCN(CC)CCNC(=N)c1nc2ccc3ncnc(Nc4ccc(OC)cc4)c3c2s1` [Compound 7e, N-(2-(Diethylamino)ethyl)-9-(4-methoxyphenylamino)thiazolo[5,4-f]quinazoline-2-carboximidamide], the concentration for half-maximal inhibition (IC50) at GSK-3α/β is 1.3 µM; on CK1δ/ε, more than 10 µM; against DYRK1A, 4 µM; on CDK5/p25 (read-out: CDK5 IC50), more than 10 µM.
Take `COc1ccc(Nc2ncnc3ccc4nc(C(=N)NCc5ccccc5)sc4c23)cc1` [Compound 7f, N-Benzyl-9-(4-methoxyphenylamino)thiazolo[5,4-f]quinazoline-2-carboximidamide]: the half-inhibitory concentration (IC50) at GSK-3α/β was 2 µM; against CK1δ/ε it was more than 10 µM; on DYRK1A, 8 µM; at CDK5/p25 (read-out: CDK5 IC50), more than 10 µM.
Turning to `COc1ccc(Nc2ncnc3ccc4nc(C(=N)N(C)C)sc4c23)cc1` [Compound 7g, 9-(4-Methoxyphenylamino)-N,N-dimethylthiazolo[5,4-f]quinazoline-2-carboximidamide], the half-maximal inhibitory concentration (IC50) was 1.1 µM on GSK-3α/β, more than 10 µM on CK1δ/ε, 0.7 µM against DYRK1A and more than 10 µM on CDK5/p25 (read-out: CDK5 IC50).
With `COc1ccc(Nc2ncnc3ccc4nc(C(N)=O)sc4c23)cc1` [Compound 7h, 9-(4-Methoxyphenylamino)thiazolo[5,4-f]quinazoline-2-carboxamide], the IC50 is 0.3 µM on GSK-3α/β, more than 10 µM on CK1δ/ε and more than 10 µM on CDK5/p25.
As for `COC(=N)c1nc2ccc3ncnc(Nc4ccc(OC)cc4)c3c2s1` [Compound 7i, Methyl 9-(4-methoxyphenylamino)thiazolo[5,4-f]quinazoline-2-carbimidate], the IC50 on GSK-3α/β was 0.2 µM; against CK1δ/ε, more than 10 µM; at CDK5/p25 (read-out: CDK5 IC50), more than 10 µM.
Turning to `N=C(NCCN1CCOCC1)c1nc2ccc3ncnc(Nc4ccc5c(c4)OCO5)c3c2s1` [Compound 8a, 9-(Benzo[d][1,3]dioxol-5-ylamino)-N-(2-morpholinoethyl)thiazolo[5,4-f]quinazoline-2-carboximidamide], the IC50 at GSK-3α/β is 0.97 µM; against CK1δ/ε, more than 10 µM; against DYRK1A, 2.2 µM; at CDK5/p25 (read-out: CDK5 IC50), more than 10 µM.
Consider `N=C(NCCN1CCCCC1)c1nc2ccc3ncnc(Nc4ccc5c(c4)OCO5)c3c2s1` [Compound 8b, 9-(Benzo[d][1,3]dioxol-5-ylamino)-N-(2-(piperidin-1-yl)ethyl)thiazolo[5,4-f]quinazoline-2-carboximi-damide], for which the half-inhibitory concentration (IC50) on GSK-3α/β was 1.1 µM; on CK1δ/ε, more than 10 µM; on DYRK1A (setting [1]) it was 2 µM; at CDK5/p25 (setting [2]), more than 10 µM.
In the case of `N=C(NCCN1CCCC1)c1nc2ccc3ncnc(Nc4ccc5c(c4)OCO5)c3c2s1` [Compound 8c, 9-(Benzo[d][1,3]dioxol-5-ylamino)-N-(2-(pyrrolidin-1-yl)ethyl)thiazolo[5,4-f]quinazoline-2-carboxi-midamide], the half-maximal inhibitory concentration (IC50) was 0.36 µM at GSK-3α/β, more than 10 µM on CK1δ/ε, 1.1 µM against DYRK1A (setting [1]) and more than 10 µM on CDK5/p25 (setting [2]).
Take `CN(C)CCNC(=N)c1nc2ccc3ncnc(Nc4ccc5c(c4)OCO5)c3c2s1` [Compound 8d, 9-(Benzo[d][1,3]dioxol-5-ylamino)-N-(2-(dimethylamino)ethyl)thiazolo[5,4-f]quinazoline-2-carboxi-midamide]: the half-maximal inhibitory concentration (IC50) on GSK-3α/β was 0.25 µM; at CK1δ/ε, more than 10 µM; against DYRK1A (setting [1]), 1.05 µM; on CDK5/p25 (setting [2]), more than 10 µM.
As to `CCN(CC)CCNC(=N)c1nc2ccc3ncnc(Nc4ccc5c(c4)OCO5)c3c2s1` [Compound 8e, 9-(Benzo[d][1,3]dioxol-5-ylamino)-N-(2-(diethylamino)ethyl)thiazolo[5,4-f]quinazoline-2-carboxi-midamide], the half-maximal inhibitory concentration (IC50) is 0.8 µM at GSK-3α/β, more than 10 µM on CK1δ/ε, 6.5 µM on DYRK1A (setting [1]) and more than 10 µM on CDK5/p25 (setting [2]).
As for `N=C(NCc1ccccc1)c1nc2ccc3ncnc(Nc4ccc5c(c4)OCO5)c3c2s1` [Compound 8f, 9-(Benzo[d][1,3]dioxol-5-ylamino)-N-benzylthiazolo[5,4-f]quinazoline-2-carboximidamide], the concentration for half-maximal inhibition (IC50) on GSK-3α/β is 2 µM; at CK1δ/ε, more than 10 µM; at DYRK1A, more than 10 µM; on CDK5/p25 (read-out: CDK5 IC50), more than 10 µM.
Take `NC(=O)c1nc2ccc3ncnc(Nc4ccc5c(c4)OCO5)c3c2s1` [Compound 8h, 9-(Benzo[d][1,3]dioxol-5-ylamino)thiazolo[5,4-f]quinazoline-2-carboxamide]: the IC50 at GSK-3α/β is 0.77 µM; against CK1δ/ε, more than 10 µM; against DYRK1A, 0.8 µM; on CDK5/p25 (read-out: CDK5 IC50), more than 10 µM.
Take `COC(=N)c1nc2ccc3ncnc(Nc4ccc5c(c4)OCO5)c3c2s1` [Compound 8i, Methyl 9-(benzo[d][1,3]dioxol-5-ylamino)thiazolo[5,4-f]quinazoline-2-carbimidate]: the IC50 on GSK-3α/β is 0.66 µM; against CK1δ/ε it was more than 10 µM; at DYRK1A it was 0.047 µM; on CDK5/p25 (read-out: CDK5 IC50), more than 10 µM.
For `N=C(NCCN1CCOCC1)c1nc2ccc3ncnc(Nc4ccc(Br)cc4F)c3c2s1` [Compound 9a, 9-(4-Bromo-2-fluorophenylamino)-N-(2-morpholinoethyl)thiazolo[5,4-f]quinazoline-2-carboximid-amide], the IC50 is 1.8 µM at GSK-3α/β, more than 10 µM against CK1δ/ε, more than 10 µM at DYRK1A (setting [1]) and more than 10 µM on CDK5/p25 (setting [2]).
For the compound `N=C(NCCN1CCCCC1)c1nc2ccc3ncnc(Nc4ccc(Br)cc4F)c3c2s1` [Compound 9b, 9-(4-Bromo-2-fluorophenylamino)-N-(2-(piperidin-1-yl)ethyl)thiazolo[5,4-f]quinazoline-2-carboxi-midamide], the IC50 is 0.53 µM at GSK-3α/β, more than 10 µM at CK1δ/ε, more than 10 µM at DYRK1A (setting [1]) and more than 10 µM on CDK5/p25 (setting [2]).
In the case of `N=C(NCCN1CCCC1)c1nc2ccc3ncnc(Nc4ccc(Br)cc4F)c3c2s1` [Compound 9c, 9-(4-Bromo-2-fluorophenylamino)-N-(2-(pyrrolidin-1-yl)ethyl)thiazolo[5,4-f]quinazoline-2-carboxi-midamide], the 50% inhibitory concentration (IC50) at GSK-3α/β is 2.2 µM; against CK1δ/ε it was more than 10 µM; on DYRK1A (setting [1]), more than 10 µM; on CDK5/p25 (setting [2]), more than 10 µM.
Regarding `COC(=N)c1nc2ccc3ncnc(Nc4ccc(Br)cc4F)c3c2s1` [Compound 9i, Methyl 9-(4-bromo-2-fluorophenylamino)thiazolo[5,4-f]quinazoline-2-carbimidate], the IC50 at GSK-3α/β is 0.16 µM; at CK1δ/ε, more than 10 µM; on CDK5/p25 (read-out: CDK5 IC50), more than 10 µM.
As for `NC(=O)c1nc2ccc3ncnc(Nc4ccc(F)c(Cl)c4)c3c2s1` [Compound 10h, 9-(3-Chloro-4-fluorophenylamino)thiazolo[5,4-f]quinazoline-2-carboxamide], the IC50 on GSK-3α/β is 0.66 µM; against CK1δ/ε, more than 10 µM; against CDK5/p25, more than 10 µM.
On to `COC(=N)c1nc2ccc3ncnc(Nc4ccc(F)c(Cl)c4)c3c2s1` [Compound 10i, Methyl 9-(3-chloro-4-fluorophenylamino)thiazolo[5,4-f]quinazoline-2-carbimidate], for which the half-maximal inhibitory concentration (IC50) at CDK5/p25 (read-out: CDK5 IC50) was more than 10 µM.

The values are drawn from paper PMC6270991, “Design and Synthesis of Thiazolo[5,4-f]quinazolines as DYRK1A Inhibitors, Part I” (Molecules, 2014).
